Experimental data reported in patent US20240366571A1, “MODULATORS OF SK4 POTASSIUM CHANNEL AND USES THEREOF” (Ramot at Tel-Aviv University Ltd., priority 2022, published 2024).
pEC50: −log10 of the molar value. Entries after “also recorded” stand apart in the source; their conditions may differ.

Key:
isolated rat hearts = experiment: Langendorff perfused isolated rat hearts: electrophysiology and hemodynamics; conditions: 10 μM
Experimental: (§1) Animals: Adult male Sprague-Dawley rats (n=56, 200-250 grams) and Guinea pigs (n=19, 400-700 grams) obtained from Envigo Laboratories (Jerusalem, Israel) were bred and grown in Ben-Gurion University of the Negev, Israel. Experiments in rats and guinea pigs were approved by the institutional ethics committee of Ben-Gurion University of the Negev, Israel (Protocol No. IL-24-05-2020(D) and were carried out in strict accordance with the Guide for the Care and Use of Laboratory Animals of the National Institutes of Health. The animals were kept under standardized conditions: 12:12 light: dark cycles at 20-24° C. and 30-70% relative humidity.
(§2) Perfused isolated hearts—Langendorff method: The isolated heart experiment setup was performed as described in Etzion et al., Am J Physiol Heart Circ Physiol (2008) 295, H1460-1469; and Mor et al., J Pharmacol Exp Ther (2013) 344, 59-67.]. Briefly, each animal was anesthetized with 2% isoflurane and an intraperitoneal (IP) injection of pentobarbital (60 mg/kg), followed by IP injection of Heparin (1000 U/kg). The heart was rapidly excised and placed into ice-cold Tyrode's buffer solution (consisted of 140 mM NaCl, 5.4 mM KCl, 0.5 mM MgCl2, 2.5 mM CaCl2, 0.39 mM NaH2PO4, 10 mM HEPES and 11 mM glucose, and titrated to pH 7.4 with NaOH). The aorta was cannulated and connected to a pre-heated (37° C.) and oxygenated perfusion system with Tyrode's solution while perfusion pressure was maintained at about 70 mmHg throughout the experiment. Prior to the experiment, the heart was left in Tyrode's solution to stabilize for 20 minutes for hemodynamic measurements, the left atrial appendage was excised, and a collapsed latex balloon was inserted into the left ventricle (LV) through the mitral valve. Once positioned, the balloon was filled with double distilled water reaching an end-diastolic pressure of 10-15 mmHg. Coronary perfusion pressure and LV pressure were recorded by a pressure amplifier (ETH-256C amplifier and B-100 probes, iWorx, NH, USA). Electrophysiological signals were recorded from the high right atrium (HRA) via a miniature quadripolar hook electrode (for simultaneous pacing and recording) and from the LV via a bipolar hook electrode. Electrical signals were filtered (1-2 kHz) and recorded by two voltage amplifiers (Model 3000, A-M Systems, Carlsberg, WA, USA). Signals were interfaced with a PC using an A/D converter (PCI-6024E, National Instruments, Austin TX, USA) and a custom-designed program developed with LabVIEW programing language (National Instruments, Austin, TX, USA) to control signal acquisition, data saving and off-line analysis. Measured physiological parameters during the experiment included perfusion flow (ml/minute) as a marker for coronary perfusion pressure, LV developed pressure, dP/dt±(representing the rate of rise of left ventricular pressure during isovolumetric contraction as a marker for LV contractility), heart rate, PR, and RR intervals. Tram-34 and BA6b9 were applied for a 20-minutes incubation period and physiological parameters were recorded.
(§3) Effective refractory period measurements: Using both custom-made quadripolar electrode inserted on the HRA and two bipolar electrodes (recording and pacing) on the LV, allowed measurement of the effective refractory period (ERP) at the atrial level (atrial effective refractory period, AERP), atrioventricular level (AVERP), and ventricular level (VERP). For ERP measurement, a programmed S1S2 stimulation protocol was performed using double diastolic threshold intensity. The protocol consisted of ten S1-S2 intervals of 150 milliseconds (ms) followed by an S1-S2 interval that was reduced by 1 ms each time, until pacing capture failed three consecutive times. AERP, AVERP, and VERP were measured and recorded prior and after exposure to the used inhibitor, either Tram-34 or BA6b9.

[1] = tested on: isolated guinea pig hearts; experiment: Langendorff perfused isolated guinea pig hearts; conditions: 10 μM
Experimental: as §1, §2, §3

WT SK4 channels = target: T1, WT SK4 channels (Homo sapiens, UniProt O15554); experiment: Inside-out macro-patch recording of WT SK4 channels in transfected CHO cells; format: cell-based; conditions: 1 μM free-Ca2+
T1 construct: expressed in transfected cells; host or cells: CHO cells
Experimental: Inside-out macro-patch recording: To measure the Ca^2+ concentration dependence for SK4 channel activation, CHO cells were co-transfected with plasmids encoding WT SK4 (1 μg) and WT CaM (1 μg) using the Lipofectamine reagent at a ratio of 1:2. The cells were transfected 48 hours prior to recordings. The patch pipettes were pulled and fire-polished with a MF-900 micro-forge (Narashige) to reach an internal diameter of […]. The resistance of the patch electrodes ranged from 2-3 MΩ. The pipette solution contained 135 mM KCl, 1 mM MgSO4, 0.91 mM CaCl2, and 10 mM HEPES at pH 7.3. The bath solution contained 135 mM KCl, 5 mM EGTA, and 10 mM HEPES at pH 7.3. EGTA was used to titer the different Ca^2+ concentration solutions, calculated using the software by C. Patton of Stanford University (http://maxchelator(dot)stanford(dot)edu/). Currents were recorded by 10 repetitive 1 second duration voltage ramps from −100 mV to +100 mV from a holding potential of 0 mV. The current amplitudes in response to increasing Ca^2+ concentrations were normalized to those obtained at a saturating Ca^2+ concentration (3 μM). Furthermore, to determine the Ca^2+ concentration dependence for activation in the presence of a tested compound, such as the exemplary compound BA6b9 (10 μM), the current amplitudes were normalized to those obtained at large maximal Ca^2+ concentration of 10 μM. For PIP2-dependent activation, PIP2 affinity to the SK4 channel was also examined in the inside-out configuration. The dose-response curve for PIP2 was measured with increasing concentrations of diC8-PIP2 in the presence of 1 μM Ca^2+. The diC8-PIP2 effect on the channel current was measured after complete depletion of the native PIP2 using sonicated poly-L-lysine (PLL) 50 μg/ml and a subsequent 2-minute washout. […] Apparent EC50 values for Ca^2+ or diC8-PIP2 were determined by fitting the data points to a standard dose-response curve Y=100/(1+10^(log EC(50)−X)*HillSlope).
The calcium dependence of the human SK4 K^+ channel in transfected CHO cells was characterized using inside-out macro-patches. The expressed currents were recorded in response to voltage ramps (−100 millivolt (mV) to +100 mV for 1 seconds) and by increasing the free-Ca^2+ concentrations applied to the internal face of the membrane. […]
To examine whether PIP2 is involved in the modulation of the SK4 channel, channel trafficking to the plasma membrane was increased by co-transfecting CHO cells with plasmid DNAs encoding for the channel and for wild type (WT) CaM. The resulting currents were recorded from inside-out macro-patches, where the intracellular solution contained a saturating concentration of 1 μM free-Ca^2+, as shown in FIG. 1B (see, black plot).

WT SK2 channels = WT SK2 channels (Rattus norvegicus, UniProt P70604); conditions: Zhang et al., Nat Chem Biol (2014); cited from earlier work
human SK4 [2] = target: T2, human SK4 (Homo sapiens, UniProt O15554); experiment: Whole-cell patch-clamp of WT SK4 K+ currents in transfected CHO cells; format: cell-based; conditions: 10 μM
T2 construct: expressed in transfected cells; host or cells: CHO cells

human SK4 [3] = target: T2, human SK4; experiment: as above; format: cell-based; conditions: WT SK4 currents in absence and presence of 20 μM compound
Experimental: Constructs: For CHO cell transfection, the following were cloned: human SK1, rat SK2, human SK3, and rat calmodulin into the pcDNA3 vector, human SK4 into pEGFP-C1 vector, and PIP4,5-kinase into an IRES-dsRed plasmid. The mutations were introduced using the PCR-based QuikChange™ site-directed mutagenesis (Stratagene®) and were verified by full sequencing of the entire plasmid vector.
Cell Culture and Transfection: Chinese hamster ovary (CHO) cells were grown in Dulbecco's modified Eagle's medium supplemented with 2 millimolar (mM) glutamine, 10% fetal calf serum, and antibiotics. In brief, 40,000 cells seeded on poly-L-lysine-coated glass coverslips (13 millimeter (mm) in diameter) in a 24-multiwell plate were transfected with 0.5 microgram (μg) pEGFP-SK4/0.5 μg mutant SK4, 1.2 μg dsRed-PIP4,5-kinase or with 1 μg SK1/SK2/SK3 together with pIRES-CD8 (0.3 μg) as a marker for transfection. Transfection was performed using TransIT-LT1 Transfection Reagent (Mirus Bio) according to the manufacturer's protocol. For electrophysiology, transfected cells were visualized approximately 40 hours after transfection with a Zeiss Axiovert 35 inverted florescence microscope.
Whole-cell patch-clamp recording: Voltage-clamp recordings were performed using the whole-cell configuration of the patch-clamp technique. Signals were amplified using an […] patch-clamp amplifier (Molecular Devices), sampled at 5 kHz and filtered at 2.4 kHz via a four pole Bessel low pass filter. Data were acquired using pClamp™ 10.5 software in conjunction with an Axon™ DigiData® 1440A interface (Molecular Devices). The patch pipettes were pulled from borosilicate glass (Harvard Apparatus) with a resistance of 3-5 megaohms (MΩ). The intracellular pipette solution contained 130 mM KCl, 5 mM EGTA, 10 mM HEPES, pH 7.3 (adjusted with KOH), and CaCl2 calculated for a final concentration of 1 μM free-Ca^2+, by MAXCHELATOR (WEBMAXC STANDARD) software, with sucrose added to adjust osmolarity to 290 mosM. The external solution (310 mosM) contained 140 mM NaCl, 4 mM KCl, 1.8 mM CaCl2, 1.2 mM MgCl2, 11 mM glucose, and 5.5 mM HEPES adjusted with NaOH to pH 7.3. CHO cells were held at −90 millivolt (mV) and SK4 K^+ currents were activated using a voltage ramp protocol from −100 mV to +60 mV for 150 milliseconds. Electrophysiological data analysis was performed using the Clampfit program (pClamp™ 10.5; Molecular Devices).
Some of the compounds were tested by comparing trace of WT SK4 channel currents in the absence and presence of 20 μM of the tested compound.

With `Clc1ccccc1C(c1ccccc1)(c1ccccc1)n1cccn1` [Tram-34, 1-[(2-chlorophenyl)diphenylmethyl]-1H-pyrazole, reference compound] the “coronary flow (perfusion flow velocity)” value (isolated rat hearts) was “significantly lowered”, the “left ventricular filling pressure (developed pressure)” value (isolated rat hearts) was “did not affect” and the “maximal pressure change in left ventricular contractility (dP/dt max)” value (isolated rat hearts) was “reduces both parameters”. The “minimal pressure change in left ventricular contractility (dP/dt min)” value (isolated rat hearts) was “reduces both parameters”, the “AERP (effect)” value [1] was “significantly prolonged” and the “AVERP (effect)” value [1] was “significantly prolonged”. The “action potential activation current (atrial and ventricular pacing thresholds)” value [1] was “Neither Tram-34 nor BA6b9 affected” and the “coronary flow (perfusion flow velocity)” value [1] was “no effect”.
For “poly-L-lysine hydrochloride [PLL, reference compound]”, the “decrease (inhibition) of SK4 current” value (WT SK4 channels; 50 μg/ml internal application, 1 minute) was 68%.
In the case of `CCCCCCCC(=O)OC[C@H](COP(=O)(O)O[C@@H]1[C@H](O)[C@H](O)[C@@H](OP(=O)(O)O)[C@H](OP(=O)(O)O)[C@H]1O)OC(=O)CCCCCCC` [diC8-PIP2, dioctanoyl, phosphatidylinositol 4,5 bisphosphate, reference compound], the pEC50 (WT SK2 channels) is listed as 5.72 and the pEC50 (WT SK4 channels; internal application after PIP2 depletion by PLL, read-out: EC50 of activation of WT SK4 channels) is listed as 6.81.
In the case of `O=c1[nH]c2ccc(Br)cc2[nH]1` [BA100, 5-bromo-1,3-dihydro-2H-benzo[d]imidazol-2-one], the “activation (increase) of WT SK4 current” value (human SK4 [2]) was 28% and the “SK4 K+ channel modulating activity” value (human SK4 [3]) was “activated; also recorded: activation; also recorded: Activator”.
In the case of `O=c1[nH]c2cc(Cl)c(Cl)cc2[nH]1` [BA40, 5,6-dichloro-1,3-dihydro-2H-benzo[d]imidazol-2-one], the “activation (increase) of WT SK4 current” value (human SK4 [2]) was 42%, the “activation of SK4 channel (fold)” value (human SK4 [2]; representative trace) was “about 1.4 fold” and the “SK4 K+ channel modulating activity” value (human SK4 [3]) was “activated; also recorded: activation; also recorded: Activator”.
